Earlier results as cited in patent US20260015580A1, “Methods of Producing and Using Avian Embryonic Stem Cells and Avian Telencephalic Organoids” (The Regents of the University of California, priority 2022, published 2026).

Test system: phosphorylation of ERK in C26 cells
Details: read-out: IC50, suppressing the phosphorylation of ERK

O=C(NOC[C@H](O)CO)c1ccc(F)c(F)c1Nc1ccc(I)cc1F [PD0325901]
IC50: 0.33 nM
